Data reported in patent US12303497B2, “Anti-androgens for the treatment of metastatic castration-sensitive prostate cancer” (priority 2019, dated 2025).

Tested on: patients with metastatic castration-sensitive prostate cancer (mCSPC)
Details: Grade ≥3

For `CNC(=O)c1ccc(N2C(=S)N(c3cnc(C#N)c(C(F)(F)F)c3)C(=O)C23CCC3)cc1F` [Apalutamide, 4-[7-(6-cyano-5-trifluoromethylpyridin-3-yl)-8-oxo-6-thioxo-5,7-diazaspiro[3.4]oct-5-yl]-2-fluoro-N-methylbenzamide], which “AE leading to discontinuation: Lip swelling” value is on record?
The value was 0 no. (%).

What about the “AE leading to discontinuation: Loss of consciousness” value of the same molecule?
Its value is 0 no. (%).

What about the “AE leading to discontinuation: New cancer neoplasm” value of the same molecule?
Its value is 5 (1.0) no. (%).

What about the “AE leading to discontinuation: Parkinson's disease” value of the same molecule?
Its value is 1 (0.2) no. (%).

And the “AE leading to discontinuation: Pleural effusion” value?
The value was 0 no. (%).

And the “AE leading to discontinuation: Pulmonary edema” value?
Its value is 0 no. (%).

What about the “AE leading to discontinuation: Pulmonary embolism” value of the same molecule?
The value was 1 (0.2) no. (%).

And the “AE leading to discontinuation: Radiculopathy” value?
Its value is 1 (0.2) no. (%).

What about the “AE leading to discontinuation: Rash (grouped term)” value of the same molecule?
Its value is 7 (1.3) no. (%).

And the “AE leading to discontinuation: Respiratory failure” value?
The value was 0 no. (%).

And the “AE leading to discontinuation: Seizure” value?
Its value is 1 (0.2) no. (%).

What about the “AE leading to discontinuation: Subdural hemorrhage” value of the same molecule?
Its value is 0 no. (%).

What about the “AE leading to discontinuation: Sudden cardiac death” value of the same molecule?
Its value is 1 (0.2) no. (%).

What about the “AE leading to discontinuation: Sudden death” value of the same molecule?
The value was 0 no. (%).

What about the “AE leading to dose interruption: Anxiety” value of the same molecule?
The value was 0 no. (%).

And the “AE leading to dose interruption: Arthralgia” value?
Its value is 0 no. (%).

What about the “AE leading to dose interruption: Aspartate aminotransferase or alanine aminotransferase increased” value of the same molecule?
Its value is 4 (0.8) no. (%).

What about the “AE leading to dose interruption: Asthenia” value of the same molecule?
The value was 3 (0.6) no. (%).

What about the “AE leading to dose interruption: Atrial fibrillation” value of the same molecule?
The value was 1 (0.2) no. (%).

And the “AE leading to dose interruption: Bile duct obstruction” value?
Its value is 0 no. (%).

What about the “AE leading to dose interruption: Blood alkaline phosphatase increased” value of the same molecule?
The value was 1 (0.2) no. (%).

And the “AE leading to dose interruption: Cardiac amyloidosis” value?
The value was 0 no. (%).

What about the “AE leading to dose interruption: Cardiac disorder” value of the same molecule?
The value was 0 no. (%).

And the “AE leading to dose interruption: Cardiac failure” value?
The value was 0 no. (%).

And the “AE leading to dose interruption: Cardiac failure congestive” value?
Its value is 1 (0.2) no. (%).

And the “AE leading to dose interruption: Cerebrovascular accident” value?
Its value is 1 (0.2) no. (%).

What about the “AE leading to dose interruption: Cheilitis” value of the same molecule?
Its value is 0 no. (%).

And the “AE leading to dose interruption: Chronic hepatitis” value?
Its value is 0 no. (%).

What about the “AE leading to dose interruption: Chronic obstructive pulmonary disease” value of the same molecule?
Its value is 2 (0.4) no. (%).

And the “AE leading to dose interruption: Cognitive disorder” value?
The value was 1 (0.2) no. (%).

What about the “AE leading to dose interruption: Confusional state” value of the same molecule?
The value was 1 (0.2) no. (%).

And the “AE leading to dose interruption: Constipation” value?
Its value is 0 no. (%).

And the “AE leading to dose interruption: Decreased appetite” value?
Its value is 1 (0.2) no. (%).

What about the “AE leading to dose interruption: Dehydration” value of the same molecule?
The value was 0 no. (%).

What about the “AE leading to dose interruption: Depression” value of the same molecule?
Its value is 0 no. (%).

What about the “AE leading to dose interruption: Diabetes mellitus” value of the same molecule?
Its value is 1 (0.2) no. (%).

And the “AE leading to dose interruption: Diarrhea” value?
The value was 0 no. (%).

And the “AE leading to dose interruption: Diplegia” value?
Its value is 0 no. (%).

What about the “AE leading to dose interruption: Dizziness” value of the same molecule?
The value was 0 no. (%).

And the “AE leading to dose interruption: Dyspnea” value?
The value was 0 no. (%).

And the “AE leading to dose interruption: Dysuria” value?
The value was 1 (0.2) no. (%).

What about the “AE leading to dose interruption: Edema” value of the same molecule?
The value was 0 no. (%).

What about the “AE leading to dose interruption: Eyelid edema” value of the same molecule?
Its value is 0 no. (%).

What about the “AE leading to dose interruption: Facial edema” value of the same molecule?
The value was 0 no. (%).

And the “AE leading to dose interruption: Fall” value?
The value was 1 (0.2) no. (%).

What about the “AE leading to dose interruption: Fatigue” value of the same molecule?
The value was 1 (0.2) no. (%).

What about the “AE leading to dose interruption: Febrile neutropenia” value of the same molecule?
Its value is 1 (0.2) no. (%).

What about the “AE leading to dose interruption: Gamma-glutamyltransferase increased” value of the same molecule?
Its value is 1 (0.2) no. (%).

What about the “AE leading to dose interruption: Gastric ulcer perforation” value of the same molecule?
Its value is 1 (0.2) no. (%).

What about the “AE leading to dose interruption: Gastritis” value of the same molecule?
The value was 0 no. (%).

What about the “AE leading to dose interruption: General physical health deterioration” value of the same molecule?
The value was 1 (0.2) no. (%).

And the “AE leading to dose interruption: Hallucination” value?
Its value is 0 no. (%).

What about the “AE leading to dose interruption: Headache” value of the same molecule?
Its value is 0 no. (%).

What about the “AE leading to dose interruption: Hematoma” value of the same molecule?
The value was 1 (0.2) no. (%).

And the “AE leading to dose interruption: Hematuria” value?
The value was 2 (0.4) no. (%).

What about the “AE leading to dose interruption: Hemorrhage intracranial” value of the same molecule?
Its value is 1 (0.2) no. (%).

What about the “AE leading to dose interruption: Hemorrhagic erosive gastritis” value of the same molecule?
Its value is 1 (0.2) no. (%).

And the “AE leading to dose interruption: Hepatic cirrhosis” value?
The value was 0 no. (%).

And the “AE leading to dose interruption: Hepatic failure” value?
Its value is 0 no. (%).

What about the “AE leading to dose interruption: Hip fracture” value of the same molecule?
Its value is 1 (0.2) no. (%).

What about the “AE leading to dose interruption: Hot flush” value of the same molecule?
Its value is 0 no. (%).

And the “AE leading to dose interruption: Hydronephrosis” value?
The value was 0 no. (%).

And the “AE leading to dose interruption: Hyperbilirubinemia” value?
The value was 1 (0.2) no. (%).

And the “AE leading to dose interruption: Hypersensitivity” value?
Its value is 0 no. (%).

And the “AE leading to dose interruption: Hypertension” value?
Its value is 6 (1.1) no. (%).

What about the “AE leading to dose interruption: Hypertriglyceridemia” value of the same molecule?
The value was 2 (0.4) no. (%).

What about the “AE leading to dose interruption: Hypokalemia” value of the same molecule?
The value was 1 (0.2) no. (%).

And the “AE leading to dose interruption: Hyponatremia” value?
The value was 1 (0.2) no. (%).

And the “AE leading to dose interruption: Infections” value?
Its value is 4 (0.8) no. (%).

What about the “AE leading to dose interruption: Influenza-like illness” value of the same molecule?
The value was 0 no. (%).

And the “AE leading to dose interruption: Insomnia” value?
The value was 0 no. (%).

What about the “AE leading to dose interruption: Ischemic cardiac events” value of the same molecule?
The value was 1 (0.2) no. (%).

What about the “AE leading to dose interruption: Large intestinal ulcer perforation” value of the same molecule?
The value was 1 (0.2) no. (%).

And the “AE leading to dose interruption: Mental status changes” value?
The value was 0 no. (%).

What about the “AE leading to dose interruption: Muscular weakness” value of the same molecule?
Its value is 0 no. (%).

And the “AE leading to dose interruption: Musculoskeletal stiffness” value?
The value was 0 no. (%).

What about the “AE leading to dose interruption: Nausea” value of the same molecule?
The value was 0 no. (%).

And the “AE leading to dose interruption: Neutropenia” value?
The value was 2 (0.4) no. (%).

What about the “AE leading to dose interruption: New cancer neoplasm” value of the same molecule?
The value was 1 (0.2) no. (%).

What about the “AE leading to dose interruption: Osteoarthritis” value of the same molecule?
The value was 0 no. (%).

And the “AE leading to dose interruption: Osteoporosis” value?
The value was 0 no. (%).

And the “AE leading to dose interruption: Pain (grouped term)” value?
Its value is 4 (0.8) no. (%).

And the “AE leading to dose interruption: Pathological fracture” value?
Its value is 0 no. (%).

What about the “AE leading to dose interruption: Peripheral edema” value of the same molecule?
Its value is 0 no. (%).

And the “AE leading to dose interruption: Peripheral swelling” value?
Its value is 0 no. (%).

And the “AE leading to dose interruption: Proctalgia” value?
Its value is 0 no. (%).

And the “AE leading to dose interruption: Pyrexia” value?
The value was 0 no. (%).

What about the “AE leading to dose interruption: Rash (grouped term)” value of the same molecule?
The value was 20 (3.8) no. (%).

And the “AE leading to dose interruption: Renal injury” value?
Its value is 0 no. (%).

And the “AE leading to dose interruption: Rheumatoid arthritis” value?
Its value is 1 (0.2) no. (%).

What about the “AE leading to dose interruption: Seizure” value of the same molecule?
The value was 0 no. (%).

What about the “AE leading to dose interruption: Spinal cord compression” value of the same molecule?
Its value is 1 (0.2) no. (%).

And the “AE leading to dose interruption: Stomatitis” value?
Its value is 0 no. (%).

What about the “AE leading to dose interruption: Subarachnoid hematoma” value of the same molecule?
The value was 1 (0.2) no. (%).

And the “AE leading to dose interruption: Subarachnoid hemorrhage” value?
The value was 0 no. (%).

And the “AE leading to dose interruption: Subdural hemorrhage” value?
Its value is 0 no. (%).
